# Several values for one entry are separate records, joined by “and”; a condition that tells them apart may be missing. Equal values may be shown once. Positions of bridges follow the written chain, without caps; N, C: chain ends. Residues, ends and D or L forms follow the SMILES beside them. No end group written: not given here. *: point of attachment. Biotin = O=C1N[C@H]2[C@H](CS[C@H]2CCCCC(=O)*)N1
# Tests used:
# [1] = system: lung microvascular endothelial cells; experiment: Whole-cell patch clamp, membrane conductance in lung microvascular endothelial cells; format: cell-based, mouse; conditions: 30 min preincubation at acidic pH (pH 6); TNF, mutTNF 100 ng/ml, peptides 100 μg/ml
# Text: Animals, cells and reagents. Male CBA/J or C57BL/6 mice, as well as male TNFR ½^0/0 C57BL/6 mice deficient in TNF receptors (Bruce et al., 1996) provided by H. Bluethmann, F. Hoffmann-La Roche, Basel, Switzerland, were used at the age of 8–10 weeks. Their care was in accordance with institutional guidelines. Lung microvascular endothelial cells were isolated from CBA/J mice and characterized as described (Jackson et al., 1990) using magnetic beads (Dynabeads M-450, Dynal, Oslo, Norway), covalently bound to a purified rat-anti-mouse PECAM-1 monoclonal antibody (donated by B. Imhof, University of Geneva). Microvascular lung endothelial cells were resuspended in DMEM containing 2 mM L-glutamine, 100 U/ml penicillin, […], 20% FCS, 40 U/ml heparin and […] endothelial cell growth supplement (Brunschwig Chemie, Basel, Switzerland). For patch clamp experiments, cells were plated onto 35×10 mm easy grip Petri dishes (Beckton Dickinson, Plymouth, UK), pre-coated with 0.2% gelatin (Sigma, Buchs, Switzerland). Resident peritoneal macrophages, isolated in ice cold RPMI containing antibiotics and 10 U/ml Heparin, were left to adhere onto 35×10 mm easy grip Petri dishes for 4 h, after which the non-adherent cells were removed. Cells were grown in RPMI 1640 containing 2 mM L-glutamine, 100 U/ml penicillin, 10 μpg/ml streptomycin and 10% fetal bovine serum (all from Gibco). For patch clamp, the macrophages ware used 24 h after isolation.
# Electrophysiology. Cells were pretreated for 30 min with TNF, mutTNF and tip peptides at 37° C. in a buffer consisting of 145 mM NaCl, 3 mM KCl, 2mM CaCl2, 2mM MgCl2, 10 mM D-glucose, and 10mM Hepes, and pH-adjusted with NaOH to required value. Cells were then washed with the same buffer pH-adjusted at 7.3, and experiments were performed using the tight-seal, whole-cell recording technique. Currents were recorded with an Axopatch-200A amplifier (Axon Instrument Inc, Foster City, Calif., USA), low pass-filtered at 1 kHz. Digitalization and off-line analysis was performed using the WCP program (J. Dempster, Strathclyde Electrophysiology Software, Glasgow, UK). Patch pipettes were pulled from borosilicate glass and fire polished to have an open resistance of 3–5 MW with an internal solution containing […], 2 mM MgCl2, 10mM EGTA, 20 mM TEA-Cl, 10 mM D-glucose 10 mM Hepes, pH-adjusted to 7.3 with CsOH. Series resistances were kept under 10 MW. Capacitance and series resistance compensation were applied and set to 70%. All experiments were done at room temperature. Results are given as mean ±SEM, unless otherwise indicated. Analysis of variance was performed on currents and membrane conductance values, with post-hoc Dunn-Bonferroni test for significance of differences observed between two groups. A P value of 0.05 was considered significant.
# [2] = system: ex vivo instilled rat lung; experiment: Ex vivo rat flooded lung, model of hydrostatic edema; conditions: for activity in fluid clearance / clearing alveolar fluid content ex vivo: summary in words; for clearing alveolar fluid content ex vivo: after intratracheal instillation
# Experimental: In this model edema is induced by instillating 2 ml of 0.9% NaCl solution intratracheally. Alternatively, edema formation can be modulated by varying the height of the venous outflow and the perfusion buffer containing reservoir, or alternatively by varying the time the lung is exposed to the elevated pressure. […] The clearance of alveolar fluid from the lung is calculated by means of measuring the concentration of HSA, which is added to the instillate over time. Alternatively, the over time weight loss as a measure of edema resorption (high weight loss is high liquid clearance), of the artificially instilled lung can be measured. The lung tidal volume, compliance and weight are monitored continuously during the experiment. At the end of the experiment bronchoalveolar fluid and supernatant of lung homogenate is taken for measurement of inflammatory mediators.
# The lungs of female Wistar rats (weight 200–250 g; Harlan-Winkelmann, Borchen, Germany) are prepared after terminal i.p. anesthesia by 160 mg/kg pentobarbitural —Na (Merial Ltd, Halbermoos, Germany) and perfused as described by Uhlig and Wolin (1994), and by Uhlig and von Bethmann (1997). All equipment is obtained from Hugo Sachs Electronics (March-Hugstetten, Germany). […] As perfusion medium, a Krebs-Henseleit buffer (38° C.) containing 2% bovine serum albumin (Fraction V, Scrva. Heidelberg, Germany), 0.1% glucose (Riedel-de-Haën Inc., Seelze, Germany), and 0.3% HEPES (ICN Biomedicals Inc., Ohio, USA) is used. The total amount of recirculating buffer is 100 ml. The lungs are suspended by the trachea and ventilated by negative pressure ventilation (inspiratory pressure: −7 cm H2O, expiratory pressure: −2 cm H2O) with 80 breaths per minute resulting in a tidal volume of approximately 2 ml. Every 5 minutes, a deep inspiratory breath (−20 cm H2O) is performed. Artificial thorax chamber pressure is measured with a differential pressure transducer (Validyne DP 45-14), and an air flow velocity with a pneumotachograh tube (Fleisch Type 0000) connected to a differential pressure transducer (Validyne DP 45-15). The perfusate flow (Narcomatic RT-500) and the arterial and venous pressure (Statham P23BB) are continuously monitored. The pH of the perfusate before entering the lung is kept at 7.25 to 7.35 by automatic bubbling of the buffer with CO2 as soon as the pH exceeds this range. A weight transducer is integrated into the chamber lid which allows the continuous assessment of lung weight. Data are recorded on a Pentium II computer using the Mathlab Sofware package (Mathworks, Inc., Nattick Mass., USA). For lung mechanics, the data are analyzed by applying the following formula: P=1/C*VT+RLdV/dT
# Where P is chamber pressure, C pulmonary compliance, VT tidal volume, and RL airway resistance. All lung physiology parameters were normalized to time point 0, i.e. after the end of the preconditioning perfusion of 40 minutes.
# [3] = system: isolated rat lungs; experiment: Isolated blood perfused flooded rat lung (weight, lung mechanics, PV curves, histology); conditions: pretreated lungs after flooding and 2 hours reperfusion
# Experimental: Rats. For the ex vivo experiments, 31 Sprague-Dawley rats (300 to 350 g) were tracheotomized and mechanically ventilated (40% oxygen in air) under isoflurane anesthesia. The experimental protocol was reviewed and approved by the Ethics Committee for Animal Research and by the Veterinary Office of our institution. The femoral vessels were cannulated for blood sampling, fluid replacement, and continuous arterial blood pressure monitoring. Following anticoagulation (1.5 IU/g i.v. heparin), 20 ml of blood were withdrawn and replaced by an equal volume of dextran-40 (Macrodex 10% in normosaline) to serve as priming volume for the isolated perfusion circuit. The heart-lung block was prepared as described by Ma et al., 2000, weighed and assigned to one of four groups. […] The lungs were suspended, mechanically ventilated, and perfused at constant pressure with autologous blood as described by Ma et al., 2000.
# An inspiratory and expiratory quasi-static pressure-volume (PV) curve was performed at the end of the 2-hour reperfusion period by inflating and then deflating the lungs at a constant rate (0.3 ml/sec) using an automated infusion pump. A sigh was applied in all groups every 15 minutes to minimize atelectasis formation. The blood pH was maintained between 7.3 and 7.5 and, if necessary, corrected with sodium bicarbonate 8.4% or a change of the inspired CO2 as required by the blood gas analysis. Every 30 minutes, a blood sample was collected for blood gas analysis as well as for hematocrit and electrolyte concentration.
# Inclusion criteria. Immediately following the start of reperfusion, the preparation had to fulfill three technical inclusion criteria: • 1) left atrial pressure (LAP) 5-10 mmHg; • 2) peak airway pressure (AWP) <15 cmH2O; and • 3) pulmonary blood flow (PBF) >10 ml/min. […] The included lungs were then flooded with gentle intratracheal instillation of 2 ml normal saline and the recorded variables measured for 2 subsequent hours.
# Histological analysis. Random lung samples were fixed for light and electron microscopy and analyzed by pathologists blinded to the lung's protocol group assignment.
# [4] = system: left lung of Fischer (F344) rats; experiment: Rat model of lung reperfusion injury (warm ischemia and reperfusion); format: in vivo
# Experimental: In a modification of the model of Ohno et al. (1993) male Fischer (F344) rats (200–250 g) undergo clamping of the left pulmonary artery, pulmonary vein and main bronchus for 36 minutes of warm ischemia. After reperfusion of the left lung, the right lung is occluded to assess the function of the left lung for 90 minutes. The peptide is given at 3 minutes after reperfusion by either instillation or intravenous injection via the subclavian vein.
# • 1. Anaesthesia of the rat in a glass chamber, 4% Halothane and Oxygen 4/min. • 2. Intubation of the rat with a 1.8 mm catheter, • 3. Shaving the fur on the abdomen and left side of the animal. • 4. Ventilation via the tracheal tube 100/min, 2.5 ml 20% oxygen, Harvard Rodent Ventilator (Harvard Apparatus, South Natick, Mass.), PEEP 5 mm H2O. • 5. A left thoracotomy is carried out in the in 4th intercostal space. • 6. Dissection of the left lung hilar region. • 7. Microvascular clips are placed around the left pulmonary artery (PA), Pulmonary vein (PV) and left main bronchus (B) to induce warm ischemia of the left lung. Small circulation is still ongoing through the right lung. This is the start of the Warm Ischemia Time (WIT). • 8. Anaesthaesia is maintained with 2% Halothane, 40% Oxygen. • 9. A provisory Z suture is made to temporary close the thoracotomy and a gaze sponge is put on the animal to decrease warmth loss. • 10. Near the end of the WIT, a thoracophrenolaparatomy in the midline with thorough electrocaterisation. (two peans on the sternum). • 11. Putting 2-0 Softsilk on the trachea around the intubation tube. • 12. Dissection of the right hilar elements. • 13. Taking away microvascular clips from the left hilar elements. End of WIT of the left lung after 36 minutes. • 14. Putting microvascular clips on right PA and B. Small circulation only through left lung. Start developing of left oedema time (LLOT). • 15. After 3 minutes of LLOT: instillation of the drug in 0.5 ml of 0.9% saline solution (Baxter) or injection of the drug in 0.25–0.3 ml of 0.9% saline through the subclavian vein. • 16. After 6, 30, 60 and 90 minutes of LLOT, puncture of the Aortic Arch (AA) with needle for blood gas analysis in Radiometer ABL 700 Serie, (Denmark). • 17. After each puncture the AA puncture hole is pressed with a cotton swab. • 18. Blood gas analysis is taken every time from AA (the heart rate should be over 60). • 19. After the last blood gas analysis (90 minutes), both lungs are flushed via the PA with 20 ml of 0.9% saline at a pressure of 20 cm H2O. […] The heart-lung block is excised for storage under formaline or in the freezer awaiting immunohistopathological analysis. Alternatively, the lung can be excised without flushing to assess wet to dry ratio's. Results (FIG. 7)
# [5] = measured 80 minutes after instillation
molecule,measurement,setting,value
"GG-COTKPWELOPDEKPAYC [scramblTip, reference compound]",whole cell current / membrane conductance,[1],inactive
CGQRETPEGAEAKPWY (Biotin-CGQRETPEGAEAKPWY) [linear hum Ltip],activity in fluid clearance,[2]; [5],equally active
same,activity in fluid clearance,[2]; measuring for 100 minutes after instillation,less active
same,Weight loss of ex vivo instilled rat lung over 80 min,[2]; synthetic peptide 1000 μg/lung,498 mg and 863 mg and 585 mg and 462 mg
"CC(C)C[C@@H]1NC(=O)[C@H](CCC(=O)O)NC(=O)[C@H](Cc2c[nH]c3ccccc23)NC(=O)[C@@H]2CCCN2C(=O)[C@H](CCCCN)NC(=O)[C@H]([C@@H](C)O)NC(=O)CNC(=O)[C@@H](N)CSSC[C@@H](C(=O)O)NC(=O)[C@H](Cc2ccc(O)cc2)NC(=O)[C@H](C)NC(=O)[C@@H]2CCCN2C(=O)[C@H](CCCCN)NC(=O)[C@H](CCC(=O)O)NC(=O)[C@H](CC(=O)O)NC(=O)[C@@H]2CCCN2C(=O)CNC1=O [cyclic mu scrambl Tip, reference compound] (H-CGTKPWELGPDEKPAYC-OH; disulfide 1-17)",endothelial flaps and epithelial blebs (electron microscopy),[3],less evident
"GG-CCIPKDAPAGAALKPWYC [mutTip, reference compound]",whole cell current / membrane conductance,[1],inactive
"CGQREAPAGAAAKPWYC (disulfide 1-17) [hum mut Tip, reference compound]",clearing alveolar fluid content ex vivo,[2],inactive
same,pO2 blood gas levels,"[4]; 6 to 90 minutes of LLOT, cyclic hum Ltip 500 μg/kg to 5 μg/kg, hum mut Tip 500 μg/kg",followed completely the values seen in the control animals
same,gain in pO2 blood gas,[4]; iv application,no effect
"CC(C)(C)NCC(O)c1cc(O)cc(O)c1 (centres unmarked) [Terbutaline, reference compound]",Weight loss of ex vivo instilled rat lung over 80 min,"[2]; Terbutalin 1 mM alone, individual lungs",1035 mg and 872 mg and 1219 mg and 1119 mg and 822 mg and 1075 mg and 675 mg and 730 mg and 1000 mg and 923 mg and 880 mg and 702 mg
same,Weight loss of ex vivo instilled rat lung over 100 min,[2]; Terbutaline 1 mM + Chitobiose 500 μg,800 mg
same,Weight loss of ex vivo instilled rat lung over 100 min,"[2]; Terbutaline 1 mM alone, individual lungs",805 mg and 1223 mg and 1425 mg and 1370 mg
same,clearing alveolar fluid content ex vivo,[2],capable of clearing alveolar fluid content
CTPEGAEC (Biotin-CTPEGAEC; cysteine pairing not given here; listed as Mus musculus) [STip],whole cell current / membrane conductance,[1],failed to induce a voltage-dependent current
same,activity in fluid clearance,[2]; [5],equally active
same,Weight loss of ex vivo instilled rat lung over 80 min,[2]; synthetic peptide 1000 μg/lung,507 mg and 607 mg and 781 mg and 703 mg and 744 mg
same,Weight loss of ex vivo instilled rat lung over 100 min,[2]; synthetic peptide 1000 μg/lung,836 mg and 535 mg and 684 mg and 891 mg and 849 mg

# Source: patent US7258861B2, “TNF-derived peptides for use in treating oedema” (Innogenetics N.V., priority 2001, dated 2007)
